Measured values from patent US10674723B2, “1,8-bis(Schiff base)-p-menthane derivatives as well as preparation method and applications thereof” (INSTITUTE OF CHEMICAL INDUSTRY OF FOREST PRODUCTS, CAF, priority 2016, dated 2020).

Test system: annual ryegrass
Experiment: Pre-emergence herbicidal activity by the Petri dish seed germination method
Type: in vivo
Details: 25° C., 5 days
Experimental: Step 2: accurately weigh 1 mmol of the 1,8-bis(Schiff base)-p-menthane derivative and dissolve it in 0.25 mL DMF, and then add a drop of Tween 80 into it; after the product is fully dissolved, the resulting solution is transferred to a 100 mL volumetric flask and is diluted with distilled water to the mark to obtain a solution having a concentration of 10 mmol/L as the mother liquor. Using the two-fold dilution method, a series of diluted sample solutions with different concentrations are prepared with the mother liquor (the concentrations of DMF and Tween 80 in the diluted solutions should be consistent with those in the mother liquor).
The annual ryegrass seeds are soaked with distilled water for 15 h. Place a piece of filter paper on the bottom of a Petri dish (φ9 cm), add 10 mL of the above sample solution having the corresponding concentration into it, respectively, and add the same amount of the mixture of water, DMF and Tween 80 into such a Petri dish as a blank control. Place 10 grains of seeds into each dish. The dishes are then placed in an incubator and cultured at 25° C. for 5 days. The experimental data are analyzed with DPS software, and the inhibition rate of the 1,8-bis(Schiff base)-p-menthane derivative on the root or stem growth of ryegrass seeds is calculated as follows:
[formula] Where: y is the inhibition rate on the root or stem growth, x2 is the root length or stem length of the control sample, and x1 is the root length or stem length of the sample.
1 mmol of the 1,8-bis(2-hydroxyphenylimine)-p-menthane was accurately weighed and dissolved in 0.25 mL DMF; a drop of Tween 80 was then added into it; after the product was fully dissolved, the resulting solution was transferred to a 100 mL volumetric flask and was diluted with distilled water to the mark to obtain a solution having a concentration of 10 mmol/L as the mother liquor. Using the two-fold dilution method, a series of diluted sample solutions with different concentrations (5 mmol/L, 2.5 mmol/L, 1.25 mmol/L, 0.625 mmol/L and 0.3125 mmol/L; the concentrations of DMF and Tween 80 in the diluted solutions should be consistent with those in the mother liquor) were prepared with the mother liquor.
The annual ryegrass seeds were soaked with distilled water for 15 h. Placed a piece of filter paper on the bottom of a Petri dish (φ 9 cm), added 10 mL of the above sample solution having the corresponding concentration into it, respectively, and added the same amount of the mixture of water, DMF and Tween 80 into such a Petri dish as a blank control. 10 grains of seeds were placed into each of the dishes. The dishes were then placed in an incubator and cultured at 25° C. for 5 days.

Compound | inhibition rate on the root growth of ryegrass seeds (0.3125 mmol/L solution) [%] | inhibition rate on the stem growth of ryegrass seeds (0.3125 mmol/L solution) [%] | inhibition rate on the root growth of ryegrass seeds (0.625 mmol/L solution) [%] | inhibition rate on the stem growth of ryegrass seeds (0.625 mmol/L solution) [%] | inhibition rate on the root growth of ryegrass seeds (1.25 mmol/L solution) [%] | inhibition rate on the stem growth of ryegrass seeds (1.25 mmol/L solution) [%] | inhibition rate on the root growth of ryegrass seeds (2.5 mmol/L solution) [%] | inhibition rate on the stem growth of ryegrass seeds (2.5 mmol/L solution) [%] | inhibition rate on the root growth of ryegrass seeds (5 mmol/L solution) [%] | inhibition rate on the stem growth of ryegrass seeds (5 mmol/L solution) [%] | inhibition rate on the root growth of ryegrass seeds (10 mmol/L solution) [%] | inhibition rate on the stem growth of ryegrass seeds (10 mmol/L solution) [%]
1,8-bis(2-hydroxyphenylimine)-p-menthane | 14.3 | 6.9 | 41.4 | 38.0 | 62.2 | 61.7 | 83.3 | 79.5 | 100.0 | 100.0 | 100.0 | 100.0
1,8-bis(4-bromophenylimine)-p-menthane | 71.0 | 64.8 | 88.0 | 79.5 | 100.0 | 100.0 | 100.0 | 100.0 | 100.0 | 100.0 | 100.0 | 100.0
1,8-bis(p-dimethylaminophenylimine)-p-menthane | 100.0 | 96.8 | 100.0 | 100.0 | 100.0 | 100.0 | 100.0 | 100.0 | 100.0 | 100.0 | 100.0 | 100.0
1,8-bis(p-trifluoromethylphenylimine)-p-menthane | 35.4 | 1.1 | 45.5 | 2.4 | 65.8 | 26.0 | 87.5 | 53.7 | 81.7 | 34.8 | 93.8 | 87.9
1,8-bis(2-trifluoromethylphenylimine)-p-menthane | 79.2 | 56.3 | 86.2 | 56.3 | 99.7 | 88.2 | 100.0 | 100.0 | 100.0 | 100.0 | 100.0 | 100.0
CC1(N=Cc2c(Cl)cccc2Cl)CCC(C(C)(C)N=Cc2c(Cl)cccc2Cl)CC1 (stereo not drawn) [1,8-bis(2,6-dichlorophenylimine)-p-menthane] | 100.0 | 100.0 | 100.0 | 100.0 | 100.0 | 100.0 | 100.0 | 100.0 | 100.0 | 100.0 | 100.0 | 100.0
1,8-bis(p-methylthiophenylimine)-p-menthane | 37.7 | 20.8 | 46.4 | 28.7 | 35.4 | 27.1 | 54.8 | 28.0 | 50.3 | 21.9 | 67.8 | 36.7
1,8-bis(4-fluorophenylimine)-p-menthane | 14.0 | 4.5 | 35.0 | 21.6 | 58.0 | 49.9 | 78.0 | 53.8 | 85.5 | 82.5 | 94.9 | 94.9
1,8-bis(4-methylphenylimine)-p-menthane | 20.3 | 11.1 | 26.3 | 25.9 | 34.2 | 26.8 | 67.0 | 46.2 | 92.8 | 90.4 | 100.0 | 100.0
1,8-bis(4-chlorophenylimine)-p-menthane | 94.1 | 75.2 | 98.0 | 90.3 | 99.3 | 91.4 | 100.0 | 98.2 | 100.0 | 100.0 | 100.0 | 100.0
1,8-bis(4-methoxyphenylimine)-p-menthane | 12.5 | 30.6 | 15.5 | 32.2 | 54.3 | 48.2 | 88.3 | 73.9 | 100.0 | 100.0 | 100.0 | 100.0
